Results from patent US7718768B2, “Biologically active peptide [sequence]” (CMS Peptides Patent Holding Company Limited, priority 2001, dated 2010).
Marks after values point to notes of the source that are not given here. No end group written: not given here.

Columns and labels:
[1] = tested on: Masugi nephritis rat model; assay: Masugi nephritis rat model; format: in vivo, Sprague Dawley (SD) rats
Description: The anti-serum was then exuded and isolated. Whole blood was collected from 15 healthy SD rats. […] Treatment started on the day of induction. […] Adequate drinking water was supplied.

anti-SRBC antibody = assay: Sheep Red Blood Cell (SRBC) hemolysis test, anti-SRBC antibody formation; format: in vivo, BALB/c mice; conditions: SRBC on day 12, IFN-γ and IL-2 groups 3×10^5 IU/kg/day, X ± SD
Experimental: Sheep red blood cells (SRBC) were prepared by collecting blood from cervical vein and put into a sterile flask with glass beads. The flask was shaken for 3 minutes and the blood then mixed with Alsever solution (glucose 2.05 g, NaCl 0.4 g, […] 0.8 g, adjust to 100 ml with distilled water) and stored at 4° C. Immediately before use, samples were centrifuged at 130 g, 5 minutes to collect the SRBC. The cells were washed two times by re-suspension and centrifugation in normal saline. Then the cell pellet was collected by centrifugation at 180 g for 10 minutes and re-suspended in saline to make the final working SRBC suspension, 2% (v/v).
Complement was prepared by adding 10 volumes of fresh Cavy serum into one volume centrifuge packed SRBC, and then gently shaking for 30 minutes at 4° C. The SRBC was removed by centrifugation at 200 g for 10 minutes. 10 volumes of normal saline were added to obtain the working complement solution.
The test substances were administered as described in section 1.1, plus intraperitoneal injection 0.2 ml SRBC per mouse on day 12. On the day after the last test substance administration (day 16), blood was collected from the eye canthus and left at room temperature for one hour for serum exudation. After centrifugation at 200 g for 10 minutes, the serum was diluted by 500 times with normal saline.
To 1 ml diluted mouse serum of each mouse, 0.5 ml SRBC suspension was added. Ice cold. Then 1 ml working complement solution was added and incubated at 37° C. water bath for 10 minutes. Reactions were terminated by ice cold. Samples were then centrifuged at 200 g for 10 minutes to obtain the supernatant.
To 1 ml of this supernatant, 3 ml Drabkin solution was added and left at room temperature for 10 minutes. OD540nm was obtained.
Reference OD540nm was obtained by mixing 0.25 ml SRBC suspension with Drabkin solution to 4 ml and placed at room temperature for 10 minutes before OD540nm was taken. Sample serum index=(OD540nm of test sample[…]reference OD540nm)×500 3. The Effect of Peptides on the Phagocytosis Function of Mononuclear Phagocyte and the Weight of Immune Organ^[8,9].

mononuclear phagocyte = assay: carbon particle clearance test, phagocytotic activity of mononuclear phagocyte; format: in vivo, BALB/c mice; design: key: α = (cube root of K)×(body weight ÷ liver+spleen weight); conditions: peptide 5 μg/kg/day i.p. 15 days; IFN-γ and IL-2 groups 3×10^5 IU/kg/day; X ± SD
Experimental: On the next day after the last test substance administration (day 16), the mice were injected with […] body weight India ink (5 times dilution with normal saline) from the tail vein.
One minute and five minutes after Indian ink injection, 20 μl blood was obtained from the eye can thus with a heparinized tubing. The blood was mixed with 2 ml 0.1% w/v Na2CO3 and then OD680nm obtained. The outline clear index K was calculated by the following formula: K=(lgA1−lgA2)÷(t2−t1) Key: A1: OD680nm at first minute A2: OD680nm at fifth minute t2: 5 minutes […]
(§1) One day after the last test substance administration (day 16), the liver, spleen, and thymus gland were separated and blotted dry with filter paper and weighed. The phagocytosis index α was calculated as below: α=(^3√K)(W÷WLS) key: W: body weight WLS: weight of liver plus spleen Thymus gland index(%)=(thymus weight/body weight)×100% Spleen index(%)=(spleen weight/body weight)×100%

[2] = immunity organ weight test (thymus gland index, spleen index); format: in vivo, BALB/c mice; conditions: IFN-γ and IL-2 groups 3×10^5 IU/kg/day, X ± SD
Experimental: The above substances were all dissolved in 0.5 ml saline and injected intraperitoneal (i.p.) for 15 continuous days, once per day.
as §1

[3] = after three weeks of treatment, peptides 50 μg/kg/day i.p., hydrocortisone 3.3 mg/kg/day i.p.
[4] = peptide 0.5 μg/kg/day i.p. 15 days

Compound | Serum creatinine level [1, 3] | growth rate of treated nephritis rats ([1]; peptides 50 μg/kg/day i.p., hydrocortisone 3.3 mg/kg/day i.p.) | anti-SRBC antibody formation (sample serum index) (anti-SRBC antibody; [4]) | anti-SRBC antibody formation (sample serum index) (anti-SRBC antibody; peptide 500 μg/kg/day i.p. 15 days) | phagocytotic index (mononuclear phagocyte) | weight of thymus gland (thymus gland index) [2, 4] | weight of thymus gland (thymus gland index) ([2]; peptide 5 μg/kg/day i.p. 15 days) | weight of thymus gland (thymus gland index) ([2]; peptide 50 μg/kg/day i.p. 15 days) | urine protein level ([1]; Week 1, 24 hours urine, peptides 50 μg/kg/day i.p., hydrocortisone 3.3 mg/kg/day i.p.) | urine protein level ([1]; Week 2, 24 hours urine, peptides 50 μg/kg/day i.p., hydrocortisone 3.3 mg/kg/day i.p. (halved after first week)) | spleen index [1, 3] | renal pathological microscopic examination ([1]; peptides 50 μg/kg/day i.p. 3 weeks, 6 heaviest kidneys per group)
C[C@]12CCC(=O)C=C1CC[C@@H]1[C@@H]2[C@@H](O)C[C@@]2(C)[C@H]1CC[C@]2(O)C(=O)CO [hydrocortisone, Hydrocortisone, reference compound] | 239 ± 107 µmol/L | slower growth rate than normal | – | – | – | – | – | – | – | – | – | –
VGMGEKDSY [CMS018] | 67 ± 1 µmol/L | – | 3 ± 1* Unit | 66 ± 16* Unit | 6.7 ± 1.2 | 0.20 ± 0.03 % | 0.24 ± 0.04*^@^ % | 0.23 ± 0.02*^@^ % | 7.0 ± 3.7 mg | 5.5 ± 7.9 mg | 3.3 ± 0.8 ×10^−3 | all pathological parameters of all rats were normal
